Results: patent US12673918B2, “Small molecule RPN13 inhibitors with antitumor properties” (The Johns Hopkins University, priority 2019, dated 2026)
pIC50: −log10 of the molar value.

What was measured:
ES2 cells = assay: Annexin V apoptosis flow cytometry, ES2 cells; assay type: cell-based, human; conditions: ES2, 12 hr
Experimental: FIG. 7D illustrates surface PS staining of 10^5 ES2 cells treated with compounds for 12 hr and re-suspended in binding buffer and labeled with Annexin V-PE and 7-AAD at RT for 15 min and analyzed by flow cytometry (Becton Dickinson, Mountain View, CA).
FIG. 16D illustrates ES2 cells were treated with compounds at indicated doses for 12 hr then re-suspended in 100 μL binding buffer with 5 μL of Annexin V-PE and 5 μL of 7-AAD to examine early apoptosis. After a 15 min incubation at RT, the cells were analyzed by flow cytometry using a FACSCalibur and CellQuest software.

NF-κB [1] = assay: NF-κB dependent luciferase reporter in 293T cells; assay type: cell-based; conditions: 293T NF-κB luciferase, drug treatment 7 hr
Description: FIG. 21C illustrates 293T cells stably expressing NF-κB dependent luciferase gene that show a dose dependent reduction in bioluminescence with drug treatment (7 hr) measured by luminometer.
Activation of NF-κB is regulated by IκB proteins. IκB-α ubiquitination and degradation is an important step for the nuclear localization of NF-kB and activation of its transcriptional program.

HS578T = conditions: human
OVCAR3 = conditions: human
intracellular GSH = assay: Total GSH assay, SKOV3 cells; assay type: cell-based, human; conditions: SKOV3, 0.5 μM, 12 hr
Experimental: Luciferase and GSH assays: Sub-confluent cultures of cells were transfected with 4Ub-FL or FL plasmid using Lipofectamine 2000 reagent (Life Technologies). Cells were seeded at 10,000 cells/well in 96-wells plate 48 hr post transfection and incubated with compounds or vehicle (DMSO) at the doses and times indicated. Luciferase activity in cell lysate was determined with a luciferase assay kit (Promega) according to the manufacturer's instructions. Bioluminescence was measured by using a Glomax Multidetection system (Promega). Glutathione was assayed using the Promega GSH assay kit (V6611).

NF-κB [2] = conditions: 293T cells stably expressing NFkB-Luc reporter; previously observed (13); read-out: IC50 of NF-κB signaling inhibition; cited from earlier work
SKOV3 cells = assay: XTT cytotoxicity assay, SKOV3; assay type: cell-based, human; conditions: Homo sapiens, SK-OV-3; Table 1; XTT assay; read-out: IC50 SKOV3
Description: The impact of substituents of the aromatic ring on the potency of molecules was also examined. The presence of either an electron withdrawing group (EWG) or an electron donating group (EDG) influences the reactivity of a Michael acceptor towards the target protein but can also impact specificity/selectivity.

SSC25 = assay: MTT cytotoxicity assay, SSC25; assay type: cell-based; conditions: Table 3, 48 hr, Head & Neck (HPV −ve)
Experimental: Cell lines and cytotoxicity assays: All cell lines were obtained from the American Type Culture Collection (ATCC) and cultured in the specified medium supplemented with 10% fetal bovine serum, 100 IU/mL penicillin, and 100 μg/mL streptomycin at 37° C. in a humidified 5% CO2/95% air incubator. […] To assess drug cytotoxicity, cells were seeded at 2,500 cells/well (10,000 cells/well for MM lines) in 100 μL medium in 96-well plate and after 24 treated with compounds for 72 h, incubated according to the manufacturer's protocol with the Thiazolyl Blue Tetrazolium Bromide (Sigma, M2128) and A570 measured using a Benchmark Plus microplate spectrophotometer (BIO-RAD). IC50 data was analyzed by Graphpad Prism software.

ID8-vegf = conditions: mouse
[3] = Initial toxicity testing in female Balb/c mice; assay type: in vivo
Experimental: Initial toxicity testing was performed in female Balb/c mice with RA375. Groups of mice (n=3) were injected intra peritoneally (i.p.) with a single dose of RA375 (5, 10, 20, 40, 60, 100 mg/Kg in 25% β-hydroxypropyl cyclodextrin) and endpoints evaluated included clinical observation and body weight for one week.

HT3 = assay: MTT cytotoxicity assay, HT3; assay type: cell-based; conditions: Homo sapiens, HT-3, Table 3, 48 hr, Cervical (HPV −ve)
Experimental: The cytotoxic efficacy of selected compounds was assessed against multiple myeloma (MM) cell lines, as this is a validated clinical target for the licensed proteasome inhibitors.
(§1) Cell lines and cytotoxicity assays: All cell lines were obtained from the American Type Culture Collection (ATCC) and cultured in the specified medium supplemented with 10% fetal bovine serum, 100 IU/mL penicillin, and 100 μg/mL streptomycin at 37° C. in a humidified 5% CO2/95% air incubator. […] To assess drug cytotoxicity, cells were seeded at 2,500 cells/well (10,000 cells/well for MM lines) in 100 μL medium in 96-well plate and after 24 treated with compounds for 72 h, incubated according to the manufacturer's protocol with the Thiazolyl Blue Tetrazolium Bromide (Sigma, M2128) and A570 measured using a Benchmark Plus microplate spectrophotometer (BIO-RAD). IC50 data was analyzed by Graphpad Prism software. In the chirality studies the cells were treated with compounds for 48 h, and the cells were incubated and measured via the preceeding protocols.

[4] = PEG400: Cremophor: Tween40 vs b-HPCD
DU145 = assay: MTT cytotoxicity assay, DU145; conditions: Homo sapiens, DU-145, read-out: cytotoxicity IC50 DU145
Experimental: as §1

in vivo = assay type: in vivo, C57BL/6 mice; conditions: female, C57BL/6, mouse, in vivo; suggested from toxicities at higher dose; read-out: MTD in tumor-bearing animals
Experimental: To assess therapeutic efficacy the ID8-VegfDefb29 cell line was utilized in a syngeneic mouse model of ovarian cancer expressing luciferase (62). ID8 was first derived from spontaneous malignant transformation of C57BL/6 mouse ovarian surface epithelial cells in vitro (69). ID8-Vegf Defb29 cells represent a more aggressive variant of ovarian cancer in which VEGF provides vascular growth which is augmented by the presence of DEFB29 (62). C57BL/6 mice were injected i.p. with ID8-VegfDefb29 cells stably expressing firefly luciferase (0.5×10^6 cells) in PBS (100 μL). After 72 hrs, mice were imaged for their basal luminescence levels using an IVIS200 imager. Mice with visible luminescence were randomized into equal groups including vehicle (n=8), RA414 (3 mg/Kg, n=8), RA414 (10 mg/Kg, n=8) and treated every three days for up to 3 weeks. Mice were imaged every week to measure bioluminescence expressed by tumor after administration of luciferin. […] On day 24 two mice were sacrificed after collection of ascites, and the remainder required euthanasia on day 31 (FIGS. 17A and 17B). Administration of RA414 at 10 mg/kg (3 doses delivered every three days) regressed the tumor completely in 50% of the mice with less than 10% weight loss. […] This is consistent with proteasome inhibition within the ascites cells by the […] RA414 treatment regimen.
Tumor Studies: Female C57BL6 or Nude mice were inoculated with 10^6 ES2-Luciferase cells i.p. in 100 uL PBC, or ID8-VegfDefb29 syngeneic mouse model of ovarian cancer expressing luciferase (62) i.p. in 100 μL PBS. At day 3, mice were imaged for basal level luminescence activity with a Xenogen IVIS 200 after injection i.p. with luciferin (0.3 mg in 100 water). Mice were randomized into two groups (n=8) and treated i.p. with compounds or vehicle (25% (w/v) β-Hydroxypropylcyclodextrin in water), and imaged again on days 7 and 14. RA375 was administered i.p. at 10 mg/Kg.

RPN13 = RPN13 (Homo sapiens, UniProt Q16186); assay: RA183B competition / direct biotin labelling of RPN13 in cell lysate; assay type: binding; conditions: SKOV3 cell lysate pre-treated with compound, labelled with RA183B
Chain of RPN13 (Q16186 whole entry): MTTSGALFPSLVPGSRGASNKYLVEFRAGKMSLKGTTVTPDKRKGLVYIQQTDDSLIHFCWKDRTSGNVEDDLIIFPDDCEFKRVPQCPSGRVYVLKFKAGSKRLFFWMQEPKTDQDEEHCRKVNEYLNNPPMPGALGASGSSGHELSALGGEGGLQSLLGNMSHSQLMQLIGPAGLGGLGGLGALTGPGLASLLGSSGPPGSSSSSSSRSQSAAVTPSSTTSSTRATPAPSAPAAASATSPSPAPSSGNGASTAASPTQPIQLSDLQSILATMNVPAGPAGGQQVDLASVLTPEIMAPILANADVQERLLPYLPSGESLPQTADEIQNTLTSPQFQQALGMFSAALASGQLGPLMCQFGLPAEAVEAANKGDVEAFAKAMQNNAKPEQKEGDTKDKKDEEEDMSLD
Experimental: It has been shown preciously that RA183 adducts Cysteine 88 of RPN13 (13). […] Samples were subjected to SDS-PAGE and transferred to a PVDF membrane. The membrane was probed with HRP-Streptavidin antibody, and the blot developed using chemiluminescence.
A direct labelling assay in cell lysate of ES2, a human ovarian cancer-derived cell line, using RA413B and RA183B was performed.
Biotin labeling Assay: Clarified cell lysate in MPER buffer was pretreated with streptavidin magna beads for 45 min at 4° C. to deplete non-specific biotinylated proteins in the cell lysate. The beads were separated and 40 μL of the pre-cleared cell lysate was incubated with compounds (20 μM) for 45 min at 4° C., and then treated with RA183B, RA190B, or RA413SB (10 μM) for 45 min at 4° C. Next, the samples were mixed with Laemmli sample buffer (BioRad) and boiled for 5 min. […] (24 V). The membrane was blocked with 5% BSA in PBST for 1 hr at RT and washed for 20 minutes (3× with PBST). Then the membrane was probed with HRP-streptavidin (1:10,000 in PBST) for 1 hr at RT, washed for 30 min (3× with PBST), and developed using HyGLO chemiluminescent detection reagent (Denville) for biotin detection.

In the case of `C[C@H]1/C(=C\c2ccc([N+](=O)[O-])cc2)C(=O)/C(=C/c2ccc([N+](=O)[O-])cc2)CN1C(=O)[C@@H](N)Cc1ccccc1`, the “surface display of Annexin V versus RA183” value (ES2 cells) was “more potently activated a biomarker of early apoptosis”, the “decrease in NF-κB activity, relative potency” value (NF-κB [1]) was “more potent than for RA183” and the pIC50 (HS578T) was 7.40. For the same compound, the pIC50 (OVCAR3) was 7.16.
With `CC(C)C[C@H](NC(=O)[C@H](Cc1ccccc1)NC(=O)c1cnccn1)B(O)O` [Bortezomib, bortezomib, reference compound] the “cellular total GSH levels” value (intracellular GSH) was “profoundly reduced cellular GSH levels”.
In the case of `N[C@@H](Cc1ccccc1)C(=O)N1C/C(=C\c2ccc([N+](=O)[O-])cc2)C(=O)/C(=C/c2ccc([N+](=O)[O-])cc2)C1` [RA183, reference compound], the pIC50 (NF-κB [2]) is listed as 7.00.
Compound `N[C@@H](Cc1ccccc1)C(=O)N1C/C(=C\c2ccc(Cl)c(Cl)c2)C(=O)/C(=C/c2ccc(Cl)c(Cl)c2)C1` [RA190, reference compound] has a pIC50 (SKOV3 cells) of 7.12.
For `O=C(CCl)N[C@@H](Cc1ccccc1)C(=O)N1C/C(=C\c2ccc([N+](=O)[O-])cc2)C(=O)/C(=C/c2ccc([N+](=O)[O-])cc2)C1` [RA375], the pIC50 (SSC25) was 6.72, the pIC50 (ID8-vegf) was 7.36 and the “toxicity after repeated dosing” value ([3]; 40 mg/Kg on alternate days for two weeks) was “no observable toxicities or weight loss”. The “adverse effects after single dose” value ([3]; female Balb/c, single i.p. dose 5-100 mg/Kg, one week observation) was “No adverse effects were noted” and the pIC50 (HT3) was 6.79.
With `CC1/C(=C\c2ccc([N+](=O)[O-])cc2)C(=O)/C(=C/c2ccc([N+](=O)[O-])cc2)CN1C(=O)[C@H](Cc1ccccc1)NC(=O)CCl` (stereo partly shown) [RA414] the “solubility in formulation vehicles” value [4] was “soluble in the PEG system only”, the pIC50 (DU145) was 7.77 and the MTD (in vivo) was 3 mg/kg. The “competition with RA183B binding to RPN13” value (RPN13) was “inhibited by pre-incubation with RA414”.
